# Source: patent publication US20240066051A1 (priority 2022, published 2024)
# How the values were obtained:
# S-protein RBD (WT) = molecular target: T1, S-protein RBD (WT) (Severe acute respiratory syndrome coronavirus 2, UniProt P0DTC2); assay type: binding, SARS-CoV-2
# T1 construct: made in house; host or cells: Expi293F cells
# [1] = system: SARS-CoV-2 pseudotyped viral particles (wild-type); assay type: binding
# [2] = molecular target: T2, SARS-CoV-2 S-protein RBD WT (Severe acute respiratory syndrome coronavirus 2, UniProt P0DTC2); assay type: binding; conditions: immobilized heparin, 1:1 Langmuir global fit, 25° C.
# T2 construct: made in house; host or cells: Expi293F cells
molecule,measurement,setting,value
pentosan polysulfate [PPS],inhibition of the S-protein-heparin interaction (FIG. 5),S-protein RBD (WT),potently inhibited
same,inhibition of pseudotyped viral particle binding to heparin surface compared with heparin control,[1],stronger inhibition
mucopolysaccharide polysulfate [MPS],inhibition of the S-protein-heparin interaction (FIG. 5),S-protein RBD (WT),potently inhibited
same,inhibition of pseudotyped viral particle binding to heparin surface compared with heparin control,[1],stronger inhibition
O=S(=O)(O)c1cc2c(O)c(c1)Cc1cc(S(=O)(=O)O)cc(c1O)Cc1cc(S(=O)(=O)O)cc(c1O)Cc1cc(S(=O)(=O)O)cc(c1O)Cc1cc(S(=O)(=O)O)cc(c1O)Cc1cc(S(=O)(=O)O)cc(c1O)Cc1cc(S(=O)(=O)O)cc(c1O)Cc1cc(S(=O)(=O)O)cc(c1O)C2 [GL-522-Y-1],inhibition of the S-protein-heparin interaction (FIG. 5),S-protein RBD (WT),more modest inhibition activity
sulfated lactobionic acid,inhibition of the S-protein-heparin interaction (FIG. 5),S-protein RBD (WT),more modest inhibition activity
heparin,ka,[2],1427 1/MS
same,kd,[2],2.5 × 10^−4 1/S
same,IC50,S-protein RBD (WT); read-out: IC50 against the S-protein RBD binding to immobilized heparin,56 nM
